Test results taken from patent publication US9132138B2, “Method for the treatment of multiple sclerosis” (CASI Pharmaceuticals, Inc., priority 2012, dated 2015).

Tests used:
[1] = system: Th17 cells; assay: Intracellular cytokine staining of in vitro differentiated Th17 cells; assay type: cell-based, C57/BL6 mice
[2] = system: LPS-induced TNFα production; assay: Serum TNFα in mice injected with LPS; assay type: in vivo; conditions: 2ME2-pretreated mice injected with LPS
[3] = system: T cells; assay: Immunoblotting of signaling proteins in whole cell lysates of stimulated T cells; assay type: cell-based, C57/BL6 mice
Description: FIG. 4A, purified T cells pre-treated with 2ME2 (50 μM) were stimulated with PMA/iono for the indicated times. Whole cell lysates were subjected to immunoblotting to detect the indicated proteins. FIG. 4B, nuclear lysates were analyzed by EMSA to detect DNA binding to NF-κB or AP-1. FP, free probe. FIG. 4C, purified T cells or B cells were pre-treated with vehicle (−) or 50 μM 2ME2 (+) and were stimulated with PMA/iono for 30 or 60 minutes (left), or with anti-CD3/28 or anti-IgM/CD40 for 24 hours (right). Nuclear fractions of lymphocytes were analyzed by immunoblotting to detect nuclear translocation of NFATc1. Lamin A, nuclear protein loading control. NS; non-specific band. For FIGS. 4A-4C, data are representative of at least two independent experiments. FIG. 4D, stably transfected NFAT and NF-κB Jurkat luciferase reporter cell lines were preincubated with 2ME2 for 30 minutes, and stimulated via crosslinking of anti-CD3/28 antibodies with goat anti-mouse antibodies (GaM). 5 hours later, secreted luciferase activity indicates relative transcriptional activity. Data is reported as normalized luciferase activity and is representative of 3 independent experiments.
Whole cell lysates of stimulated T cells were immunoblotted with Ab recognizing phospho-protein kinase B (AKT) (Ser473), phospho-JNK (Thr183/Tyr185, p46 and p54 Clone G9, antibody “2”), phospho-ERK (Thr202/Tyr204) or phospho-IκBα (Ser32) (NEB); phospho-JNK (Thr183/Tyr185, p54 pSAPK/JNK, clone G7, antibody “1”) or IκBα(C21) (Santa Cruz); β-tubulin (Millipore) or actin (Sigma). Infrared dye-labeled secondary Ab (anti-rabbit Alexa fluor 680, Invitrogen, and anti-mouse IR800, LICOR) were visualized with the Odyssey® scanner (LICOR).

[4] = target: T1, ERα (Homo sapiens, UniProt P03372); conditions: cited from earlier work
T1 sequence (P03372 1-595): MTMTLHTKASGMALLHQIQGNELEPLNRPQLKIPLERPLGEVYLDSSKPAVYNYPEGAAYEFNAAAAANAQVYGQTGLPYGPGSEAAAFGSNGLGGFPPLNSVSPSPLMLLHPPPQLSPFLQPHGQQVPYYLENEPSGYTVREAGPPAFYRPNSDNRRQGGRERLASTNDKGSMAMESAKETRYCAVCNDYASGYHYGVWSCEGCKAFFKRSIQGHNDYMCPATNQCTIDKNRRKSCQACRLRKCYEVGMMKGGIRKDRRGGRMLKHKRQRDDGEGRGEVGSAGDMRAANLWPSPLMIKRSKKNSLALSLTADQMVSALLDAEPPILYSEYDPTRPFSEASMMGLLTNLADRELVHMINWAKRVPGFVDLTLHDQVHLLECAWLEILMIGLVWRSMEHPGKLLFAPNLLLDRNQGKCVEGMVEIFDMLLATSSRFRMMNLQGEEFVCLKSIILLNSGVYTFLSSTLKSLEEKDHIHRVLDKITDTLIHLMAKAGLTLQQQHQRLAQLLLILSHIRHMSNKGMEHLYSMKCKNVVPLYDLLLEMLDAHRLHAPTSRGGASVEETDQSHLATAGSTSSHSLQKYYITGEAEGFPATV

[5] = T cells activated with anti-CD3/28

COc1cc2c(cc1O)CC[C@@H]1[C@@H]2CC[C@]2(C)[C@@H](O)CC[C@@H]12 [2ME2, 2-Methoxyestradiol]
Th17 cells positive for IL-17 ([1]; 50 μM 2ME2, PMA/iono 6 hours, vehicle 23.2%): 7.3%
production of IFNγ in Th17 cells (positive cells) ([1]; PMA/iono 6 hours, vehicle 9.1%): 7.3%
serum TNFα levels [2]: no reduction
AKT phosphorylation ([3]; 2ME2 50 μM, PMA/iono): did not inhibit
ERK phosphorylation ([3]; 2ME2 50 μM, PMA/iono): did not inhibit
IκBα phosphorylation and degradation ([3]; 2ME2 50 μM, PMA/iono): normal
phosphorylation of JNK 1 and 2 ([3]; 2ME2 50 μM, present even in the absence of stimulation): modest hyper-phosphorylation
ERK phosphorylation [3, 5]: did not inhibit
JNK phosphorylation [3, 5]: did not inhibit
NF-κB p65 phosphorylation [3, 5]: did not inhibit
lower affinity than estradiol for ERα [4]: 500 fold
